What is called pIC50 is the IC50 on a negative log10 scale, so that one unit is a factor of ten.

The structures appear in SMILES notation. pIC50: −log10 of the molar value. Where a name gives a salt, the structure may show the parent alone.

The target of this test is T1, human TRPM8 (Homo sapiens, UniProt Q7Z2W7).
T1 construct: expressed in transfected cells; host or cells: Chinese hamster ovary (CHO) cells, T-REx tetracycline-inducible expression system (Invitrogen); co-transfected with pcDNA3.1 aequorin
T1 sequence (Q7Z2W7 whole entry): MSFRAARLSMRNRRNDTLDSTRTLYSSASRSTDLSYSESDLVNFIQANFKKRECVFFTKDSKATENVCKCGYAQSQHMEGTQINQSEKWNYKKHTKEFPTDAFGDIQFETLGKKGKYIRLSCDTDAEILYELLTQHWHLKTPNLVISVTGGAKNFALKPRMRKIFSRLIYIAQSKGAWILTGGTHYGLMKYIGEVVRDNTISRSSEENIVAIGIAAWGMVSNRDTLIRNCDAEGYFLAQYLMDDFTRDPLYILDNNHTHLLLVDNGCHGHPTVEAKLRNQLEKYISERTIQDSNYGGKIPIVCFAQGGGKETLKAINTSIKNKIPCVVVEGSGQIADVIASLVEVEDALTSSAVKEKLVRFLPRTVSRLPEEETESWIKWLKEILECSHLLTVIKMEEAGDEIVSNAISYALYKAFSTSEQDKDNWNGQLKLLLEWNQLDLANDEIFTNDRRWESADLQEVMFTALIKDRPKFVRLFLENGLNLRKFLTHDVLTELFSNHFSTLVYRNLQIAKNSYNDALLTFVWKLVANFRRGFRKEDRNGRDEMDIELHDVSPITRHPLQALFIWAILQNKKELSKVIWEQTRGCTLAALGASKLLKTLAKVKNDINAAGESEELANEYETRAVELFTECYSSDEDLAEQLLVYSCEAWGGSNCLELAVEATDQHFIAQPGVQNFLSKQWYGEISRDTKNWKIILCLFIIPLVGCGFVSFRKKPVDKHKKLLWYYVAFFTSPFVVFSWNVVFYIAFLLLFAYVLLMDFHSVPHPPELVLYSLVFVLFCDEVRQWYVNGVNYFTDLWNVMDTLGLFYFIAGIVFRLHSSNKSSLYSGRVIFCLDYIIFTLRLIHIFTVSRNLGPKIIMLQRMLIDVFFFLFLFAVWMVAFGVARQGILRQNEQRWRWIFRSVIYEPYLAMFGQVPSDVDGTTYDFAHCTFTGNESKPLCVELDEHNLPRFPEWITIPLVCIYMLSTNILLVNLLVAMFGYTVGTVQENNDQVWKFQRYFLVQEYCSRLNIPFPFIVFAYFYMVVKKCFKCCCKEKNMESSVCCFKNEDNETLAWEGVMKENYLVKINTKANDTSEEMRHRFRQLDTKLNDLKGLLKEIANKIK
Description: Luminescence readout assay for measuring intracellular calcium (aequorin, CHO cells expressing human TRPM8; icilin, L-menthol or cold activation). In kind it is cell-based. The note with it: CHO cells expressing human TRPM8, icilin activation (1 μM), aequorin luminescence; read-out: hTRPM8 IC50. On the procedure: Luminescence Readout Assay for Measuring Intracellular Calcium
A stable Chinese hamster ovary cell line expressing human TRPM8 was generated using tetracycline inducible T-REx™ expression system from Invitrogen, Inc. (Carlsbad, Calif.). […] Twenty four hours before the assay, cells were seeded in 96-well plates and TRPM8 expression was induced with 0.5 μg/ml tetracycline. On the day of the assay, culture media was removed and cells were incubated with assay buffer
Potential antagonists were added 2.5 min prior to the addition of agonist, 1 μM icilin, 100 μM L-menthol, or 1 min prior to the addition of cold buffer (<10° C.). The luminescence was measured by a CCD camera based FLASH-luminometer built by Amgen, Inc. A cooling device attached to FLASH luminometer was used for cold activation.
As for `O=C(Nc1cccnc1)N[C@]1(c2ccc(OC(F)(F)F)c(F)c2)CCOc2cccnc21` [Example 92, (S)-1-(4-(3-fluoro-4-(trifluoromethoxy)phenyl)-3,4-dihydro-2H-pyrano[3,2-b]pyridin-4-yl)-3-(pyridin-3-yl)urea], the negative logarithm of the IC50 (pIC50) is 7.27.

On to `O=C(N[C@]1(c2ccc(-c3ccc(F)c(CO)c3)cc2)CCOc2cccnc21)c1ccc(F)cc1` [Example 122, (S)-4-fluoro-N-(4-(4′-fluoro-3′-(hydroxymethyl)-[1,1-biphenyl]-4-yl)-3,4-dihydro-2H-pyrano[3,2-b]pyridin-4-yl)benzamide], for which the pIC50 is 5.82.

For the compound `Cn1ncc2c(C(=O)N[C@]3(c4ccc(OC(F)(F)F)cc4)CCOc4cccnc43)cccc21` [Example 261, (S)-1-methyl-N-(4-(4-(trifluoromethoxy)phenyl)-3,4-dihydro-2H-pyrano[3,2-b]pyridin-4-yl)-1H-indazole-4-carboxamide formate], the negative-log IC50 (pIC50) was 7.49.

In the case of `CNC(=O)c1ccc(-c2ccc([C@@]3(NC(=O)c4ccc(F)cc4)CCOc4cccnc43)cc2)cc1` [Example 138, (S)-4′-(4-(4-fluorobenzamido)-3,4-dihydro-2H-pyrano[3,2-b]pyridin-4-yl)-N-methyl-[1,1′-biphenyl]-4-carboxamide], the pIC50 was 5.50.

Regarding `O=C(N[C@]1(c2ccc(-c3ccc(F)cc3)cc2)CCOc2cccnc21)c1ccc(F)cc1` [Example 114, (S)-4-fluoro-N-(4-(4′-fluoro-[1,1′-biphenyl]-4-yl)-3,4-dihydro-2H-pyrano[3,2-b]pyridin-4-yl)benzamide], the pIC50 is 7.30.

For `COC(=O)c1ccccc1NC(=O)N[C@]1(c2ccc(OC(F)(F)F)c(F)c2)CCOc2cccnc21` [Example 86, (S)-methyl 2-(3-(4-(3-fluoro-4-(trifluoromethoxy)phenyl)-3,4-dihydro-2H-pyrano[3,2-b]pyridin-4-yl)ureido)benzoate], the pIC50 is 7.72.

Consider `O=C(N[C@]1(c2ccc(OC(F)(F)F)cc2)CCOc2cccnc21)c1ccsc1` [Example 230, (S)-N-(4-(4-(trifluoromethoxy)phenyl)-3,4-dihydro-2H-pyrano[3,2-b]pyridin-4-yl)thiophene-3-carboxamide formate], for which the pIC50 is 7.70.

In the case of `Cn1cc2cccc(C(=O)N[C@]3(c4ccc(OC(F)(F)F)cc4)CCOc4cccnc43)c2n1` [Example 266, (S)-2-methyl-N-(4-(4-(trifluoromethoxy)phenyl)-3,4-dihydro-2H-pyrano[3,2-b]pyridin-4-yl)-2H-indazole-7-carboxamide formate], the pIC50 is 7.44.

In the case of `Nc1cccc(-c2ccc([C@@]3(NC(=O)c4ccc(F)cc4)CCOc4cccnc43)cc2)c1` [Example 126, (S)-N-(4-(3′-amino-[1,1′-biphenyl]-4-yl)-3,4-dihydro-2H-pyrano[3,2-b]pyridin-4-yl)-4-fluorobenzamide], the pIC50 is 6.04.

As to `CC(=O)Nc1ccc(-c2ccc([C@@]3(NC(=O)c4ccc(F)cc4)CCOc4cccnc43)cc2)cc1` [Example 121, (S)-N-(4-(4′-acetamido-[1,1′-biphenyl]-4-yl)-3,4-dihydro-2H-pyrano[3,2-b]pyridin-4-yl)-4-fluorobenzamide], the pIC50 was 5.90.

Consider `COc1ccc2c(c1)C=C(C(=O)N[C@]1(c3ccc(OC(F)(F)F)cc3)CCOc3cccnc31)CO2` [Example 278, (S)-6-methoxy-N-(4-(4-(trifluoromethoxy)phenyl)-3,4-dihydro-2H-pyrano[3,2-b]pyridin-4-yl)-2H-chromene-3-carboxamide fonnate], for which the pIC50 is 7.17.

On to `O=C(N[C@]1(c2ccc(OC(F)(F)F)cc2)CCOc2cccnc21)c1cocn1` [Example 226, (S)-N-(4-(4-(trifluoromethoxy)phenyl)-3,4-dihydro-2H-pyrano[3,2-b]pyridin-4-yl)oxazole-4-carboxamide formate], for which the negative logarithm of the IC50 (pIC50) is 6.82.

`CNc1cc(C(=O)N[C@]2(c3ccc(OC(F)(F)F)c(F)c3)CCOc3cccnc32)ccc1C(=O)O` [Example 294, (S)-4-((4-(3-fluoro-4-(trifluoromethoxy)phenyl)-3,4-dihydro-2H-pyrano[3,2-b]pyridin-4-yl)carbamoyl)-2-(methylamino)benzoic acid]: the pIC50 is 8.52.

For `O=C(N[C@]1(c2ccc(OC(F)(F)F)cc2)CCOc2cccnc21)c1nnc[nH]1` [Example 212, (S)-N-(4-(4-(trifluoromethoxy)phenyl)-3,4-dihydro-2H-pyrano[3,2-b]pyridin-4-yl)-4H-1,2,4-triazole-3-carboxamide formate], the pIC50 is 5.77.

As for `O=C(NC1(c2ccc(OC(F)(F)F)cc2)CCOc2cccnc21)c1ccccc1` (centres unmarked) [Example 9, N-(4-(4-(trifluoromethoxy)phenyl)-3,4-dihydro-2H-pyrano[3,2-b]pyridin-4-yl)benzamide], the pIC50 is 7.42.

Turning to `COc1c(C(=O)O)cccc1C(=O)N[C@]1(c2ccc(OC(F)(F)F)c(F)c2)CCOc2cccnc21` [Example 186, (S)-3-((4-(3-fluoro-4-(trifluoromethoxy)phenyl)-3,4-dihydro-2H-pyrano[3,2-b]pyridin-4-yl)carbamoyl)-2-methoxybenzoic acid], the pIC50 is 7.18.

Take `Cn1cc(C(=O)N[C@]2(c3ccc(OC(F)(F)F)cc3)CCOc3cccnc32)c2ccccc21` [Example 257, (S)-1-methyl-N-(4-(4-(trifluoromethoxy)phenyl)-3,4-dihydro-2H-pyrano[3,2-b]pyridin-4-yl)-1H-indole-3-carboxamide formate]: the pIC50 was 7.23.

With `O=C(N[C@]1(c2ccc(OC(F)(F)F)c(F)c2)CCOc2cccnc21)c1ccc(Br)s1` [Example 203, (S)-5-bromo-N-(4-(3-fluoro-4-(trifluoromethoxy)phenyl)-3,4-dihydro-2H-pyrano[3,2-b]pyridin-4-yl) thiophene-2-carboxamide], the negative-log IC50 (pIC50) was 7.13.

In the case of `Cc1ccc(-c2ccc([C@@]3(NC(=O)c4ccc(F)cc4)CCOc4cccnc43)cc2)cc1N` [Example 148, (S)-N-(4-(3′-amino-4′-methyl-[1,1′-biphenyl]-4-yl)-3,4-dihydro-2H-pyrano[3,2-b]pyridin-4-yl)-4-fluorobenzamide], the pIC50 was 6.11.

With `O=C(N[C@]1(c2ccc(C(F)(F)F)cc2)CCOc2cccnc21)c1cncs1` [Example 39, (S)-N-(4-(4-(trifluoromethyl)phenyl)-3,4-dihydro-2H-pyrano[3,2-b]pyridin-4-yl)thiazole-5-carboxamide], the pIC50 is 6.57.

Regarding `O=C(N[C@]1(c2ccc(OC(F)(F)F)c(F)c2)CCOc2cccnc21)c1ccc2oc(=O)[nH]c2c1` [Example 57, (S)-N-(4-(3-fluoro-4-(trifluoromethoxy)phenyl)-3,4-dihydro-2H-pyrano[3,2-b]pyridin-4-yl)-2-oxo-2,3-dihydrobenzo[d]oxazole-5-carboxamide], the pIC50 was 8.40.

As to `Cn1c(C(=O)N[C@]2(c3ccc(OC(F)(F)F)cc3)CCOc3cccnc32)nc2ccccc21` [Example 260, (S)-1-methyl-N-(4-(4-(trifluoromethoxy)phenyl)-3,4-dihydro-2H-pyrano[3,2-b]pyridin-4-yl)-1H-benzo[d]imidazole-2-carboxamide formate], the pIC50 is 7.49.

Turning to `O=C(N[C@]1(c2ccc(-c3cnc(Cl)nc3)cc2)CCOc2cccnc21)c1ccc(F)cc1` [Example 139, (S)-N-(4-(4-(2-chloropyrirnidin-5-yl)phenyl)-3,4-dihydro-2H-pyrano[3,2-b]pyridin-4-yl)-4-fluorobenzamide], the pIC50 is 6.91.

As to `O=C(NC1(c2ccc(C(F)(F)F)nc2)CCOc2cccnc21)c1ccc2oc(=O)[nH]c2c1` (centres unmarked) [Example 27, 2-oxo-N-(4-(6-(trifluoromethyl)pyridin-3-yl)-3,4-dihydro-2H-pyrano[3,2-b]pyridin-4-yl)-2,3-dihydrobenzo[d]oxazole-5-carboxamide], the pIC50 was 7.34.

Turning to `CC(=O)Nc1ccc(C(=O)N[C@]2(c3ccc(C(F)(F)F)cc3)CCOc3cccnc32)nc1` [Example 43, (S)-5-acetamido-N-(4-(4-(trifluoromethyl)phenyl)-3,4-dihydro-2H-pyrano[3,2-b]pyridin-4-yl)picolinamide], the pIC50 was 6.95.

On to `O=C(N[C@]1(c2ccc(OC(F)(F)F)cc2)CCOc2cccnc21)c1cn2ccccc2n1` [Example 239, (S)-N-(4-(4-(trifluoromethoxy)phenyl)-3,4-dihydro-2H-pyrano[3,2-b]pyridin-4-yl)imidazo[1,2-a] pyridine-2-carboxamide formate], for which the negative logarithm of the IC50 (pIC50) is 7.46.

Consider `Cn1ncc2cc(C(=O)N[C@]3(c4ccc(C(F)(F)F)cc4)CCOc4cccnc43)ccc21` [Example 44, (S)-1-methyl-N-(4-(4-(trifluoromethyl)phenyl)-3,4-dihydro-2H-pyrano[3,2-b]pyridin-4-yl)-1H-indazole-5-carboxamide], for which the negative logarithm of the IC50 (pIC50) was 8.10.

On to `Cc1cc(C(=O)N[C@]2(c3ccc(OC(F)(F)F)c(F)c3)CCOc3cccnc32)ccc1C(=O)NC(C)(C)C` [Example 297, (S)—N1-(tert-butyl)-N4-(4-(3-fluoro-4-(trifluoromethoxy)phenyl)-3,4-dihydro-2H-pyrano[3,2-b]pyridin-4-yl)-2-methylterephthalamide], for which the pIC50 is 7.59.

Take `O=C(N[C@]1(c2ccc(OC(F)(F)F)c(F)c2)CCOc2cccnc21)N1CCC1` [Example 105, (S)-N-(4-(3-fluoro-4-(trifluoromethoxy)phenyl)-3,4-dihydro-2H-pyrano[3,2-b]pyridin-4-yl)azetidine-1-carboxamide]: the negative logarithm of the IC50 (pIC50) was 6.39.

The values are drawn from patent publication US20150031668A1, “CHROMAN DERIVATIVES AS TRPM8 INHIBITORS” (AMGEN INC., priority 2013, published 2015).
